Results taken from patent US10329324B2 (viDA Therapeutics Inc., priority 2013, dated 2019).
Where a name gives a salt, the structure may show the parent alone. Read-outs that look alike come from different tables or passages of the source.

Key:
human Granzyme B (hGzmB) = biological target: T1, human Granzyme B (hGzmB) (Homo sapiens, UniProt P10144); assay: Human Granzyme B enzymatic inhibition assay (fluorogenic, kinetic); type: biochemical; conditions: activity codes, Table 7; read-out: IC50 Activity Range
T1 construct: purchased Froelich Lab, Northshore University Health Systems Research Institute, Evanston, Ill., USA
T1 sequence (P10144 21-247): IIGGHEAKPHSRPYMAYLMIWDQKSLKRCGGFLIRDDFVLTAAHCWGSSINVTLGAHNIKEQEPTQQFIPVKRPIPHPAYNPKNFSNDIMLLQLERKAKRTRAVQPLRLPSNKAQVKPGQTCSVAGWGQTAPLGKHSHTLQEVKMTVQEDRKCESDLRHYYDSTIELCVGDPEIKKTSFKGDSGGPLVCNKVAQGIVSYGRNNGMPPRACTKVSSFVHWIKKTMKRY
How it was run: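 Human Granzyme B preincubated with compound for 30 min total (5 min shaking, 20 min bench, then reaction temperature). Fluorogenic substrate added and read kinetically, 25 cycles at 1-min intervals. Percent inhibition at one or two concentrations or 8–12-point 3-fold dose response from 20 uM, replicates, with IC50 by non-linear regression.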

[1] = Kinetic solubility determination in PBS; type: physicochemical; conditions: PBS 1X pH 7.4, 2.0% DMSO, 24 hour incubation at ambient temperature; for solubility at 24 h: phosphate buffered saline (PBS 1×), 21 °C, pH 7.4, aqueous buffer, kinetic from dmso stock
How it was run: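 DMSO stocks were diluted into PBS (1×) pH 7.4 to 2.0% final DMSO and a maximum theoretical concentration of typically 200 μM. After 24 hour incubation at ambient temperature (20.5-21.7° C.), samples were vacuum filtered. The filtrate was quantified by chemiluminescent nitrogen detection against a nitrogen calibration curve, with background-corrected values given in μM and μg/mL.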

[2] = read-out: Solubility in aqueous PBS Buffer (1X, pH 7.4)
[3] = read-out: Solubility in aqueous PBS Buffer (1X, pH 7.4), ug/mL

IC50 (human Granzyme B (hGzmB)) [nM]	solubility at 24 h [1, 2] [µM]	solubility at 24 h [1, 3] [µg/mL]	Solubility in aqueous PBS Buffer (1X, pH 7.4), uM [1] [uM]	Solubility in aqueous PBS Buffer (1X, pH 7.4), ug/mL [1] [ug/mL]	SMILES
< 100	583	342	–	–	CC[C@H](C)[C@H](NC(=O)C(F)(F)C(F)(F)C(=O)O)C(=O)NCC(=O)N1c2ccccc2C[C@H]1C(=O)NCc1nn[nH]n1 [Example A43, 2,2,3,3-Tetrafluoro-3-{[(1S,2S)-2-Methyl-1-({2-Oxo-2-[(2S)-2-[(2H-1,2,3,4-Tetrazol-5-Ylmethyl)Carbamoyl]-2,3-Dihydro-1H-Indol-1-Yl]Ethyl}Carbamoyl)Butyl]Carbamoyl}Propanoic Acid]
100 to 1000	139	74	–	–	CC[C@H](C)[C@H](NC(=O)Cc1cccnc1)C(=O)NCC(=O)N1c2ccccc2C[C@H]1C(=O)NCc1nn[nH]n1 [Example A3, (2S)-1-{2-[(2S,3S)-3-Methyl-2-[2-(Pyridin-3-Yl)Acetamido]Pentanamido]Acetyl}-N-(2H-1,2,3,4-Tetrazol-5-Ylmethyl)-2,3-Dihydro-1H-Indole-2-Carboxamide]
> 10000	112	61	–	–	CC[C@H](C)[C@H](NC(=O)Cc1ccccc1)C(=O)N[C@H](C)C(=O)N1c2ccccc2C[C@H]1C(=O)NCc1nn[nH]n1 [Example C12, (2S)-1-[(2R)-2-[(2S,3S)-3-Methyl-2-(2-Phenylacetamido)Pentanamido]Propanoyl]-N-(2H-1,2,3,4-Tetrazol-5-Ylmethyl)-2,3-Dihydro-1H-Indole-2-Carboxamide]
100 to 1000	> 750	> 454	–	–	CC[C@H](C)[C@H](NC(=O)Cc1ccccc1)C(=O)N[C@@H](CCC(=O)O)C(=O)N1c2ccccc2C[C@H]1C(=O)NCc1nn[nH]n1 [Example C13, (4S)-4-[(2S,3S)-3-Methyl-2-(2-Phenylacetamido)Pentanamido]-5-Oxo-5-[(2S)-2-[(2H-1,2,3,4-Tetrazol-5-Ylmethyl)Carbamoyl]-2,3-Dihydro-1H-Indol-1-Yl]Pentanoic Acid]
100 to 1000	> 750	> 443	–	–	CC[C@H](C)[C@H](NC(=O)Cc1csc(N)n1)C(=O)NCC(=O)N1c2ccccc2C[C@H]1C(=O)NCc1nn[nH]n1 [Example A10, (2S)-1-{2-[(2S,3S)-2-[2-(2-Amino-1,3-Thiazol-4-Yl)Acetamido]-3-Methylpentanamido]Acetyl}-N-(2H-1,2,3,4-Tetrazol-5-Ylmethyl)-2,3-Dihydro-1H-Indole-2-Carboxamide Hydrochloride]
100 to 1000	596	348	–	–	CC[C@H](C)[C@H](NC(=O)Cc1ccccc1)C(=O)NCC(=O)N1c2cc(N)ccc2C[C@H]1C(=O)NCc1nn[nH]n1 [Example C20, (2S)-6-Amino-1-{2-[(2S,3S)-3-Methyl-2-(2-Phenylacetamido)Pentanamido]Acetyl}-N-(2H-1,2,3,4-Tetrazol-5-Ylmethyl)-2,3-Dihydro-1H-Indole-2-Carboxamide]
100 to 1000	–	–	>750	>407	CC[C@H](C)[C@H](NC(=O)CC(C)CC(=O)O)C(=O)NCC(=O)N1c2ccccc2C[C@H]1C(=O)NCc1nn[nH]n1 (single isomer, unassigned) [Example A17-2]
< 100	> 750	> 410	–	–	CC[C@H](C)[C@H](NC(=O)[C@H](O)[C@@H](O)C(=O)O)C(=O)NCC(=O)N1c2ccccc2C[C@H]1C(=O)NCc1nn[nH]n1 [Example A32, (2R,3R)-2,3-Dihydroxy-3-{[(1S,2S)-2-Methyl-1-({2-Oxo-2-[(2S)-2-[(2H-1,2,3,4-Tetrazol-5-Ylmethyl)Carbamoyl]-2,3-Dihydro-1H-Indol-1-Yl]Ethyl}Carbamoyl)Butyl]Carbamoyl}Propanoic Acid]
